A short description of the data set: gradient 5% acetonitrile 3 min, to 50% in 2 min, to 85% in 15 min, held 3 min, 100 µL/min. As to conditions: column: Zorbax Extend-C18 2.1 x 50 mm; eluents: water / acetonitrile, 0.1% formic acid. The procedure, abridged: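 Using water and acetonitrile that each contained 0.1% formic acid, mixtures of ~100 pure standards were separated at 100 μL/min on a Zorbax Extend-C18 column (2.1 × 50 mm, 1.8 μm). The HPLC fed a quadrupole time-of-flight mass spectrometer working in positive and negative ionization mode, with dead and dwell volumes of 40 μL and 900 μL. Data were acquired over 3 months. Retention time was read from computationally picked adduct peaks after manual inspection of each.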
In turn, `COc1ccc(-c2nnc(-c3ccc(C)c(S(=O)(=O)N4CCSCC4)c3)o2)cc1OC` displayed an RP-LC retention time of 970 s. For `O=C(O)c1cc2cc(F)ccc2[nH]1` the value was 791 s. Then `O=C(NCc1ccc2c(c1)OCO2)C1CCN(c2cn[nH]c(=O)c2)C1` (stereo not drawn), with 627 s; and `Cc1cccc(Cn2c(=O)n(CCNC(=O)C3CCCO3)c3ncccc32)c1` (stereo not drawn), with 715 s. For `O=C(NCc1ccco1)C1CCCN(c2ccc(=O)n(-c3cccc(Cl)c3)n2)C1` (stereo not drawn) the value was 808 s; for `O=C(CN1C(=O)C2CCCCN2c2ccc(C(=O)N3CCCC3)cc21)NCCCN1CCCCCC1` (stereo not drawn), 639 s; for `COc1cc(OC)c(NS(=O)(=O)c2ccc3c(c2)-c2oncc2CO3)cc1Cl`, 910 s. Take `Cc1cc(N2CCN(c3ccccn3)CC2)n2nc(C(F)(F)F)c(-c3ccc(Cl)cc3)c2n1`: the RP-LC retention time was 1010 s. Then `Cn1c(N2CCCC(C(=O)Nc3ccc(F)cc3F)C2)cc(=O)n(C)c1=O` (stereo not drawn), with 700 s. For `Cc1c(C(=O)NCC(C)C)cnn1-c1cc(-c2nc(C(C)C)no2)ccn1` the value was 1010 s; for `O=C(NC1CCOCC1)c1ccc(-c2cc(-c3cn[nH]c3-c3ccccn3)ccn2)cc1`, 617 s. Then `COc1ccc(OCc2nc(-c3ccc(S(=O)(=O)N4CCOCC4)cc3)no2)cc1`, with 1000 s.

In turn, `C=CCN1C(=O)COc2ccc(-c3csc(NC(=O)c4ccc(OC)c(OC)c4)n3)cc21` returned an RP-LC retention time of 943 s. On to `Cc1c(C(=O)NCc2ccccc2Br)cc(-c2ccccc2)n1C`, for which the RP-LC retention time is 1040 s. `COC(=O)c1cc(S(=O)(=O)N2CCCC2C(=O)N2CCC(C)CC2)cn1C` (stereo not drawn) returned an RP-LC retention time of 770 s. For `CC1CCc2nc3ncn(CC(=O)NCCC4=CCCCC4)c(=O)c3cc2C1` (stereo not drawn) the value was 847 s. Regarding `CCCNc1cc(N2CCCC(CCC(=O)N3CCN(c4ncccn4)CC3)C2)ncn1` (stereo not drawn), the RP-LC retention time stood at 637 s. With `Cc1ccc(-c2csc(NC(=O)COc3ccc(Cl)cc3Cl)n2)cc1`, the RP-LC retention time was determined as 1180 s. Consider `NS(=O)(=O)c1cccnc1Nc1ccc(Oc2ccccc2)cc1`, for which the RP-LC retention time came to 953 s. For `COc1cccc(S(=O)(=O)N2CCC(c3noc(-c4ccccn4)n3)C2)c1` (stereo not drawn) the value was 774 s.

`CCN(CC)C(=O)c1cnc2snc(C)c2c1N1CCC(C(=O)Nc2cc(C)c(Cl)cc2OC)CC1` returned an RP-LC retention time of 1070 s. For `COC(=O)c1cccc(NS(=O)(=O)c2cn(CC(C)C)c3ncccc23)c1` the value was 913 s; for `COc1ccc(-c2nnc(-c3cc(S(=O)(=O)NCc4cccnc4)ccc3Cl)o2)cc1`, 696 s; for `CCCCOc1ccc(-c2nc(C3CC(=O)N(c4ccc(OC)cc4)C3)no2)cc1` (stereo not drawn), 1200 s. As to `CCCNC(=O)CCc1nc2ccccc2n(CC(=O)Nc2cccc(OC)c2)c1=O`, the RP-LC retention time was found to be 757 s. Then `CCOc1ccc(-c2nc(C3CC(=O)N(c4ccc(C)cc4)C3)no2)cc1OCC` (stereo not drawn), with 1090 s. Molecule `O=C(O)c1ccc2cc(-c3ccc(O)c(C4C5CC6CC(C5)CC4C6)c3)ccc2c1` (stereo not drawn) returned an RP-LC retention time of 1240 s. Turning to `Cn1ncc2c(Nc3ccc(O)cc3)nc(Cl)nc21`, the RP-LC retention time turned out to be 731 s. For `O=C(CCc1nc2ccccc2s1)N1CCC(c2noc(-c3ccccn3)n2)C1` (stereo not drawn) the value was 755 s; for `CC1CCCCN1CCNC(=O)c1nc2nc(-c3ccco3)cc(C(F)(F)F)n2n1` (stereo not drawn), 628 s. For `CNC(=O)c1c(NC(=O)C2COc3ccccc3O2)sc2c1CCCC2` (stereo not drawn) the value was 1030 s. For `O=C(NCCn1ccc2ccccc21)C(=O)c1c[nH]c2ccccc12` the value was 899 s. `N=C(N)SCCc1ccc(OCc2ccc([N+](=O)[O-])cc2)cc1` displayed an RP-LC retention time of 787 s. Then `O=C(c1cc(-c2ccncc2)n[nH]1)N1CCCC(C(=O)N2CCc3ccccc3C2)C1` (stereo not drawn), with 608 s; and `CN1C(=O)C(C)(C(=O)Nc2cccc(Cl)c2)Oc2cccnc21` (stereo not drawn), with 889 s.

In turn, `COc1ccc(N2CCn3c(SCC(=O)Nc4nc5ccccc5s4)nnc32)cc1` yielded an RP-LC retention time of 742 s. For `CCn1c(=O)c(C)nc2cc(-c3noc(C4CC(=O)N(c5cccc(Cl)c5)C4)n3)ccc21` (stereo not drawn) the value was 966 s; for `Cc1nn(-c2ccccc2)c(C)c1S(=O)(=O)N1CCC(C(=O)NC2CCCc3ccccc32)CC1` (stereo not drawn), 1010 s. For `Cc1cccc(NC(=O)CSc2nccc(N3CCN(c4cc(C)ccc4C)CC3)n2)c1` the value was 917 s; for `O=C(Nc1ccc2cn[nH]c2c1)C1c2ccccc2Oc2ccccc21`, 795 s. Then `CCOc1ccc(S(=O)(=O)NC2CCN(c3ccc(=O)n(CC4CC4)n3)C2)cc1` (stereo not drawn), with 834 s; and `Cc1ccc(C)c(-c2csc3c(=O)n(CC(=O)OC(C)(C)C)cnc23)c1`, with 1110 s.

In turn, `O=C(Cn1ccn2nc(-c3ccc(F)cc3)c(CO)c2c1=O)Nc1cc(F)cc(F)c1` came in with an RP-LC retention time of 880 s. For `CCOC(=O)c1ccc(NC(=O)CN2CCC(C)CC2)cc1` the value was 561 s. Then `CCOC(=O)CNC(=O)Cn1c(-c2cccnc2)nc2ccccc21`, with 608 s; and `Cc1ccc(Cl)cc1NC(=O)N(C)CC1CCOC1` (stereo not drawn), with 757 s.

Regarding `CCn1cc(CCN2CCN(S(=O)(=O)c3ccc(C)c(F)c3)CC2)c2cccnc21`, the RP-LC retention time was determined as 677 s. `Cc1ccc(CNC(=O)C2CCN(S(=O)(=O)c3cc(-c4noc(C)n4)cs3)CC2)cc1`: the RP-LC retention time worked out at 702 s. Then `CCOc1ccc(CN2C(=O)C3(CCOCC3)CC2c2nnnn2C(C)(C)C)cc1` (stereo not drawn), with 833 s; and `CCc1nn(C(C)C(=O)NCCc2c[nH]c3ccccc23)c(=O)c2cc3occc3n12` (stereo not drawn), with 851 s.

`COc1cccc(-c2cc(C(=O)NCCC3=CCCCC3)n(C)n2)c1` returned an RP-LC retention time of 1060 s. Then `CCn1cnnc1C1CCCCN1C(=O)CCc1c[nH]c2ccccc12` (stereo not drawn), with 697 s. In turn, `CCCn1cc(CCNC(=O)c2cccc(Cl)c2)c2cccnc21` returned an RP-LC retention time of 812 s.

`CCCC(N[C@@H](C)C(=O)N1[C@H](C(=O)O)C[C@@H]2CCCC[C@@H]21)C(=O)OCC` (stereo partly drawn): the RP-LC retention time was found to be 703 s.

`CCCN1CCN(c2ncnc3sc(C(=O)NCCCN4CCCC4)c(C)c23)CC1` registered an RP-LC retention time of 583 s.

Regarding `Cc1csc(-c2cc(S(=O)(=O)Nc3cc(F)ccc3Cl)cn2CC(=O)N2CCCC2)n1`, the RP-LC retention time turned out to be 957 s. Then `CCCC(NC(=O)Cc1ccc(C)cc1)C(=O)Nc1nc2ccccc2[nH]1` (stereo not drawn), with 722 s; and `CSc1ccccc1CN1CCC(CNC(=O)C(=O)NCCC2=CCCCC2)CC1`, with 622 s.

Regarding `O=C(Cn1cccc1-c1nnc(-c2ccccc2)o1)N1CCN(c2ccccc2)CC1`, the RP-LC retention time was found to be 984 s. For `Cc1ccccc1C(=O)NCc1ccc2c(c1)ncn2C` the value was 576 s; for `COC(=O)C1=CN(c2cccc(C)c2)c2ccccc2S1(=O)=O`, 849 s; for `O=C(Cc1ccsc1)N1CCn2c(nnc2-c2ccccc2)C1`, 671 s. Take `CCn1nccc1C(=O)NC1CCN(c2nc3c(s2)c(C)nn3-c2ccc(F)cc2)CC1`: the RP-LC retention time was determined as 1060 s. Then `CN(C)c1cccc(C(=O)NC2CCN(c3cc(-c4cccs4)[nH]n3)C2)c1` (stereo not drawn), with 668 s; and `Cn1ncc2c(N3CCCC3)nc(C(=O)NCc3cccs3)nc21`, with 742 s; and `CCOc1ccccc1NC(=O)C1CCN(c2cncnc2N2CCOCC2)CC1`, with 651 s. For `COCCNC(=O)CC1CCN(C(=O)c2[nH]c(C)cc2C)CC1` the value was 631 s.

Molecule `O=C(NC1CCc2ccccc21)c1nnn(-c2ccc(F)cc2)c1-c1ccncc1` (stereo not drawn) showed an RP-LC retention time of 799 s. For `Cc1ccccc1Cn1cc(-c2ccncc2)cc1C(=O)N1CCN(C2CCCCC2)CC1` the value was 586 s; for `COc1ccc2nc(-c3ccc(C)c(NS(=O)(=O)c4cc(C)ccc4OC)c3)cn2n1`, 812 s; for `COc1ccc(F)cc1S(=O)(=O)Nc1ccc(CC(=O)NCC(F)(F)F)cc1`, 869 s. For `CC(=O)N(Cc1nn(C)c2c1CN(Cc1cn[nH]c1-c1cccs1)CC2)c1ccccc1` the value was 589 s; for `CCc1nn2c(CNC(=O)c3cccs3)c(-c3ccccc3)nc2s1`, 866 s; for `CCc1nc(-c2ccc(-c3noc(COc4ccc(OC)cc4)n3)cc2)cs1`, 1270 s. Then `CCC1CCCCN1c1cc(C)nc2nc(-c3ccc(C)cc3)nn12` (stereo not drawn), with 1160 s; and `Cc1ccc(C(=O)Nc2nc(-c3ccc4c(c3)NC(=O)C(C)O4)cs2)cc1` (stereo not drawn), with 918 s; and `CCc1noc(NC(C)=O)c1-c1ccc(C)c(S(=O)(=O)N2CCCc3ccccc32)c1`, with 953 s. `COc1cc(C(=O)NCCNc2cc(-n3cccn3)ncn2)cc(OC)c1OC`: the RP-LC retention time worked out at 631 s.
